Experimental data taken from patent publication US5130143A, “Use of a low affinity-heparin fraction in conjunction with t-PA for thrombolytic therapy” (The Research Foundation of State University of New York, priority 1988, dated 1992).

Biological target: T1, t-PA (Homo sapiens, UniProt P00750)
T1 construct: The t-PA purified from human melanoma (Bowes) cell culture; host or cells: Bowes human melanoma cell culture (purified t-PA)
Assay: Amidolytic plasmin assay: activation of plasminogen by t-PA (S-2251 substrate)
Type: biochemical
Details: no fibrinogen fragments; 0.09 nM t-PA, 0.42 μM plasminogen, 25° C.
Description: The assay defects lysis of the amide bond of plasminogen in determining their "amidolytic plasmin activity."
The ability of unfractionated HMW-heparin to stimulate amidolytic plasmin activity of a mixture of Lys-plasminogen or Glu-plasminogen and t-PA was measured according to the protocol, previously published by the inventors herein in Biochemistry, 25, 4033 (1986) (hereinafter "the Biochemistry Paper").
To a buffered solution of 200 ul of 0.1M Tris-HCl, pH 8.1, 0.1% (V/V) Tween 80, 0.3 mM chromogenic plasmin substrate H-D-Val-Leu-Lys-pNA (S-2251, Kabi, Sweden) was added. To this mixture, HMW-heparin fractions (the Ca and Na salts, respectively) in concentrations ranging from 0 to 25 units/ml and 0.42 μM Glu- or Lys- plasminogen were added. […]
The solutions were incubated in microliter plates at 25° C. The change in absorbance (ΔA) at 405 nm was measured against blanks without t-PA in a Bio-Tek model EL-308 microplate reader.
It should be noted that plasmin activity was actually being measured in this assay and that the plasmin concentration was increasing as a function of time due to the action of the plasminogen activators on plasminogen. Thus, plots of absorbance vs. time are parabolic, whereas plots of absorbance vs. time squared are linear. Therefore, the slopes of plots of absorbance vs. time squared were used as a measure of the rate (VO) of plasmin generation. […]

T1 sequence (P00750 36-562): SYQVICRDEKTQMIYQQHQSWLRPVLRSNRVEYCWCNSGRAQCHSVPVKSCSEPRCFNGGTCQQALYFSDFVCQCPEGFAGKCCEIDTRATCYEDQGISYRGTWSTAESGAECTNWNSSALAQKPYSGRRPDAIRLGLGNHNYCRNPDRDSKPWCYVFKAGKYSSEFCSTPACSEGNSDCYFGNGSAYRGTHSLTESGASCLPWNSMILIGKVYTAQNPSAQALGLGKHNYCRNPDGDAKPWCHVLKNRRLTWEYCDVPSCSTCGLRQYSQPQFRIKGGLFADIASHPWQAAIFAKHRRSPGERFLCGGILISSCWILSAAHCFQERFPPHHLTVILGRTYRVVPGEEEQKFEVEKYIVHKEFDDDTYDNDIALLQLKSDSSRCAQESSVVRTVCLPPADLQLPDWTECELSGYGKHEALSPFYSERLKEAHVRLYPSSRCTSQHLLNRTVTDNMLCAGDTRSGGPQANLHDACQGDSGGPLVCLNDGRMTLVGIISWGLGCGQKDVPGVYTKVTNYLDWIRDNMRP

[Cl-].[Na+] [NaCl]
effect on amidolytic plasmin activity (plasmin generation) of t-PA-plasminogen mixture: did not cause a marked decrease
